Laboratory results reported in patent publication US7923465B2, “Cannabinoid receptor ligands, pharmaceutical compositions containing them, and process for their preparation” (priority 2005, dated 2011).
Like-named read-outs stand apart in the source and are kept apart here.

Experiments:
hCB2 [1] = biological target: T1, hCB2 (Homo sapiens, UniProt P34972); assay: Antagonism of CB2 receptors expressed in CHO cells, cAMP assay against CP 55,940 (Protocol IX.1); assay type: cell-based; set-up: expressed in transfected cells; host or cells: CHO (h-CB2/CHO, G418-selected); conditions: h-CB2/CHO cells, vs 10 nM CP 55,940; for inhibition at 10 µM: CHO
Description: (§1) IX. Assay for Determining Agonist and Antagonist Activity to CB1 and CB2 Receptors
(§2) 1. Antagonism of CB1/CB2 Receptors Expressed in CHO Cells.
h-CB1/CHO or h-CB2/CHO cells were grown in HAM's F12 DMEM medium (Sigma) with 10% FBS (Hyclone), 1% penicillin-streptomycin solution and 400 μg/ml of G418 (Sigma). 5000 cells were seeded per well in a 96 well plate and incubated for 24 hours at 37° C. in 5% CO2. On the day of assay, cells were washed with warm Krebs buffer containing 0.1% fatty acid free (FAF) BSA (Sigma) and re-suspended in the same buffer containing 1 mM IBMX. Test antagonist or reference compound (AM 251 (1-(2,4-dichlorophenyl)-5-(4-iodophenyl)-4-methyl-N-(1-piperidyl)pyrazole-3-carboxamide) for CB1 and SR144528 for CB2) diluted in FAFBSA+IBMX+Krebs buffer was added to the cells and incubated for 10 minutes at room temperature. CP 55,940 (30 nM final concentration for CB1 testing and 10 nM of the same for CB2 testing) was added to cells followed by forskolin (10 μM final concentration) and incubated for 30 minutes at room temperature. At the end of incubation, cells were lysed using lysis reagent from the cAMP estimation kit and cAMP was quantitated by the chemiluminescence method described in the manufacturer's instructions (DiscoveRX). EC50 values were calculated from dose response curves by nonlinear regression analysis using PRISM software.

hCB1 [2] = biological target: T2, hCB1 (Homo sapiens, UniProt P21554); assay: Antagonism of CB1 receptors expressed in CHO cells, cAMP assay against CP 55,940 (Protocol IX.1); assay type: cell-based; set-up: expressed in transfected cells; host or cells: CHO (h-CB1/CHO, G418-selected); conditions: for inhibition at 10 µM: read-out: hCB1 Antagonism
Description: as §1, §2
(§3) h-CB1/CHO or h-CB2/CHO cells were grown in HAM's F12 DMEM medium (Sigma) with 10% FBS (Hyclone), 1% penicillin-streptomycin solution and 400 μg/ml of G418 (Sigma). 5000 cells were seeded per well in a 96 well plate and incubated for 24 hours at 37° C. in 5% CO2. On the day of assay, cells were washed with warm Krebs buffer containing 0.1% fatty acid free (FAF) BSA (Sigma) and re-suspended in the same buffer containing 1 mM IBMX. […] At the end of incubation, cells were lysed using lysis reagent from the cAMP estimation kit and cAMP was quantitated by the chemiluminescence method described in the manufacturer's instructions (DiscoveRX). EC50 values were calculated from dose response curves by nonlinear regression analysis using PRISM software.

hCB2 [3] = biological target: T1, hCB2; assay: Agonism of CB2 receptors expressed in CHO cells, forskolin cAMP assay (Protocol IX.2); assay type: cell-based; set-up: expressed in transfected cells; host or cells: CHO (h-CB2/CHO, G418-selected); conditions: for IC50: cAMP
Description: as §1
(§4) 2. Agonism of CB1/CB2 Receptors Expressed in CHO Cells
h-CB1/CHO or h-CB2/CHO cells were grown in HAM's F12 DMEM medium (Sigma) with 10% FBS (Hyclone), 1% penicillin-streptomycin solution and 400 μg/ml of G418 (Sigma). 5000 cells were seeded per well in a 96 well plate and incubated for 24 hours at 37° C. in 5% CO2. On the day of assay, cells were washed with warm Krebs Buffer containing 0.1% fatty acid free (FAF) BSA (Sigma) and re-suspended in the same buffer containing 1 mM IBMX. Test compound or CP 55,940 as a reference compound (30 nM final concentration for CB1 testing and 10 μM of the same for CB2 testing) diluted in FFB+IBMX+Krebs buffer was added to the cells followed by forskolin addition (10 uM final concentration) and incubated for 30 minutes at room temperature. At the end of incubation, cells were lysed using lysis reagent from the cAMP estimation kit and cAMP was quantitated by chemiluminescence method described in the manufacturer's instructions (DiscoveRX). EC50 values were calculated from dose response curves by nonlinear regression analysis using PRISM software.

hCB1 [4] = biological target: T2, hCB1; assay: Agonism of CB1 receptors expressed in CHO cells, forskolin cAMP assay (Protocol IX.2); assay type: cell-based; set-up: expressed in transfected cells; host or cells: CHO (h-CB1/CHO, G418-selected); conditions: for hCB1 Agonism / activation at 10 µM: at 10 uM, h-CB1/CHO cells, cAMP; for activation at 10 µM: CHO
Description: as §1, §4
as §3, with “Krebs Buffer” for “Krebs buffer”, “by” for “by the”

CB1 = CB1 (Rattus norvegicus, UniProt P20272); assay: Rat CB1 receptor binding using brain membrane, [3H]SR141716A displacement (Protocol I); set-up: CB1 receptor present in a rat brain membrane preparation; from tissue; host or cells: rat brain membrane; inhibition: dose or concentration left out as unconfirmed; conditions: 1 h; rat brain membrane, [3H]SR141716A displacement; read-out: % Displacement Protocol I
hCB2 [5] = biological target: T1, hCB2; assay: In vitro binding assay using hCB2-CHO membranes, [3H]-CP-55,940 displacement (Protocol IV); set-up: expressed in transfected cells; host or cells: CHO (hCB2-CHO, generated in-house); conditions: 1 h, read-out: % Displacement Protocol IV
Procedure, shortened: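 Displacement of [3H]-CP-55,940 (0.75 nM) from membranes of CHO cells expressing human CB2 (25-50 μg) was measured in Tris-BSA buffer pH 7.4 with 5 mM MgCl2, 1 mM EDTA, 0.1% BSA, 1 h at 30 °C. Test compounds were at 300 nM final; nonspecific binding defined with 0.5 μM CP-55,940. Values are % displacement of specific binding.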

[6] = at 10 uM, h-CB1/CHO cells, cAMP, vs 30 nM CP 55,940
[7] = h-CB2/CHO cells, read-out: hCB2 Agonism IC50
[8] = hCB2-CHO membranes, [3H]-CP-55,940 displacement
[9] = hCB2 Agonism IC50, h-CB2/CHO cells

T1 sequence (P34972 whole entry): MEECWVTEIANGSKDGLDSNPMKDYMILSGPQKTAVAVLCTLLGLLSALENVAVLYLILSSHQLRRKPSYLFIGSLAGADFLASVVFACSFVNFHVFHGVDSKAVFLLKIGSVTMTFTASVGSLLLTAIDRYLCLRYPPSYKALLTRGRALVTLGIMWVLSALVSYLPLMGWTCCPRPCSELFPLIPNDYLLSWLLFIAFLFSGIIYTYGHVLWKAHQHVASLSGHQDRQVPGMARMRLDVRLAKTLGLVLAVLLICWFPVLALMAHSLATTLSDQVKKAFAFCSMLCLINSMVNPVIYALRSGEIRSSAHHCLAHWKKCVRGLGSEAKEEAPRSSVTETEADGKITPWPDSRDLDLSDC
T2 sequence (P21554 whole entry): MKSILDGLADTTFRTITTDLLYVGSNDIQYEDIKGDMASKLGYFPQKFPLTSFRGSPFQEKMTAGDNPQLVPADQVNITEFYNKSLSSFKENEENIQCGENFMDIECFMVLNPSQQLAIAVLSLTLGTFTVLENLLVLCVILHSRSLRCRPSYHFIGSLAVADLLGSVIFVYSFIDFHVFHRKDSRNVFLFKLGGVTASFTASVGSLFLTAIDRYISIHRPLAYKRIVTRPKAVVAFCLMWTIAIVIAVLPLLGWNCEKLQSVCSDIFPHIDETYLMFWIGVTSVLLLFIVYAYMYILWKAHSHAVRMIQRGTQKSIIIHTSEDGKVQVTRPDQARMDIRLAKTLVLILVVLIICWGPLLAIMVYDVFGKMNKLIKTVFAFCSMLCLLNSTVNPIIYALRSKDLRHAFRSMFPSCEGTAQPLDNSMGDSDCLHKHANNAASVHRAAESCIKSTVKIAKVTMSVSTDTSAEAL
CB1, sequence (P20272 whole entry): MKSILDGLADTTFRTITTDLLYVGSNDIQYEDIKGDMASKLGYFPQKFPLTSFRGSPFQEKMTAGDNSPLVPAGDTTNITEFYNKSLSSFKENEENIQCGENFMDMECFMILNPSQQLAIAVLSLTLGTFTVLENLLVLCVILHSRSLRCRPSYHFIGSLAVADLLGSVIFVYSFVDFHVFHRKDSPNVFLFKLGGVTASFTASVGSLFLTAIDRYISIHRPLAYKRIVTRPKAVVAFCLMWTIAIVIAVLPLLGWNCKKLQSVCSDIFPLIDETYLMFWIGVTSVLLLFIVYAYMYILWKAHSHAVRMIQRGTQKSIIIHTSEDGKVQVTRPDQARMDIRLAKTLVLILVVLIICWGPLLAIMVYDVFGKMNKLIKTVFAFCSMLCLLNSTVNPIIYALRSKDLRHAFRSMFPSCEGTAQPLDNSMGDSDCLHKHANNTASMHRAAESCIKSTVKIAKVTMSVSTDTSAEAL

Row | SMILES | inhibition at 10 µM (hCB2 [1]) [%] | inhibition at 10 µM (hCB1 [2]; [6]) [%] | IC50 (hCB2 [3]; [7]) [nM] | hCB1 Agonism (hCB1 [4]) [% at] | hCB2 Antagonism (hCB2 [1]; at 10 uM) [% at] | hCB1 Antagonism (hCB1 [2]; [6]) [% at 10 uM] | inhibition (CB1) [%] | hCB2 Agonism (hCB2 [3]; bare number, no unit or concentration given) | inhibition at 0.3 µM (hCB2 [5]; [8]) [%] | melting point [°C] | activation at 10 µM (hCB1 [4]) [%] | inhibition at 0.3 µM (hCB2 [5]) [%] | IC50 (hCB2 [3]; [9]) [nM] | inhibition at 10 µM (hCB1 [2]; CHO) [%] | IC50 (hCB1 [4]) [nM]
1 | CC(C)(C)NC(=O)c1nn(-c2ccc(F)cc2F)c2c1[C@@H]1CC[C@H]2C1 (single isomer, unassigned) [Example 304] | 51.6 | 0 | 0.93 | 55 | – | – | – | – | – | – | – | – | – | – | –
2 | CC(C)(C)NC(=O)c1nn(-c2ccc(F)cc2F)c2c1[C@@H]1CC[C@H]2C1 (single isomer, unassigned) [Example 305] | – | – | 2.16 | 20 | 37.45 | 0 | – | – | – | – | – | – | – | – | –
3 | O=C(NC1CCCCC1)c1nn(-c2ccccc2)c2c1C1CCC2C1 (centres unmarked) [Example 202, N(3)-Cyclohexyl-1-phenyl-4,5,6,7-tetrahydro-1H-4,7-methano-indazole-3-carboxamide] | – | 0 | – | – | – | – | 28.2 | 16.79 | 70.1 | 107 | 0 | – | – | – | –
4 | O=C(Nc1ccc(F)cc1F)c1nn(-c2ccc(Cl)cc2Cl)c2c1C1CCC2C1 (centres unmarked) [Example 244, N(3)-(2,4-Difluorophenyl)-1-(2,4-dichlorophenyl)-4,5,6,7-tetrahydro-1H-4,7-methano-indazole-3-carboxamide] | 25.3 | 61.5 | 5.66 | – | – | – | – | – | – | 152 to 155 | 0 | 88.3 | – | – | –
5 | O=C(NCc1ccccc1F)c1nn(-c2ccc(Cl)cc2Cl)c2c1C1CCC2C1 (centres unmarked) [Example 245, N(3)-(2-Fluorobenzyl)-1-(2,4-dichlorophenyl)-4,5,6,7-tetrahydro-1H-4,7-methano-indazole-3-carboxamide] | 32.9 | 70.7 | – | – | – | – | – | – | 84.8 | 54 | 0 | – | 50.4 | – | –
6 | O=C(NCc1ccc(F)cc1F)c1nn(-c2ccc(Cl)cc2Cl)c2c1C1CCC2C1 (centres unmarked) [Example 247, N(3)-(2,4-Difluorobenzyl)-1-(2,4-dichlorophenyl)-4,5,6,7-tetrahydro-1H-4,7-methano-indazole-3-carboxamide] | 29.2 | 75.3 | – | – | – | – | – | – | 79.1 | 73 to 76 | 0 | – | 5.44 | – | –
7 | O=C(NNc1cccc(F)c1)c1nn(-c2ccc(Cl)cc2Cl)c2c1C1CCC2C1 (centres unmarked) [Example 266, N(3)-[(3-Fluorophenyl)amino]-1-(2,4-dichlorophenyl)-4,5,6,7-tetrahydro-1H-4,7-methano-indazole-3-carboxamide] | 27.7 | – | – | – | – | – | 34.5 | – | 62 | 190 | 12.1 | – | 14 | – | –
8 | O=C(NNc1ccccc1F)c1nn(-c2ccc(F)cc2F)c2c1C1CCC2C1 (centres unmarked) [Example 288, N(3)-[(2-Fluorophenyl)amino]-1-(2,4-difluorophenyl)-4,5,6,7-tetrahydro-1H-4,7-methano-indazole-3-carboxamide] | 17.1 | 55.3 | – | – | – | – | – | – | 60.8 | 172 to 175 | 0 | – | 4.76 | – | –
9 | O=C(NC(CO)c1ccccc1)c1nn(-c2ccc(F)cc2F)c2c1C1CCC2C1 [Example 302, N5-[(1S)-2-Hydro-1-phenylethyl]-3-(2,4-difluorophenyl)-3,4-diazatricyclo[5.2.1.0.^2,6]deca-2(6),4-diene-5-carboxamide] | 0 | – | 9.75 | – | – | – | – | – | – | 91 | 19 | 71.8 | – | – | –
10 | CC(C)(C)NC(=O)c1nn(-c2ccc(F)cc2F)c2c1C1CCC2C1 (centres unmarked) [Example 303, N(3)-(tert-Butyl)-1-(2,4-difluorophenyl)-4,5,6,7-tetrahydro-1H-4,7-methano-indazole-3-carboxamide] | 17.6 | – | 0.61 | – | – | – | – | – | – | – | – | 89.7 | – | 0 | 10900
11 | O=C(NCC1CC1)c1nn(-c2ccc(F)cc2F)c2c1C1CCC2C1 (centres unmarked) [Example 314, N(3)-Cyclopropanmethyl-1-(2,4-difluorophenyl)-4,5,6,7-tetrahydro-1H-4,7-methano-indazole-3-carboxamide] | 22.9 | 0 | 8.52 | – | – | – | – | – | – | 113 to 115 | 3.41 | 64.9 | – | – | –
12 | O=C(NC1CCC1)c1nn(-c2ccc(F)cc2F)c2c1C1CCC2C1 (centres unmarked) [Example 315, N(3)-Cyclobutyl-1-(2,4-difluorophenyl)-4,5,6,7-tetrahydro-1H-4,7-methano-indazole-3-carboxamide] | 16.1 | 1 | 0.16 to 1.76 | – | – | – | – | – | – | 123 to 125 | 12.6 | 64.2 | – | – | –
13 | O=C(N[C@@H](CO)c1ccccc1)c1nn(-c2ccc(F)cc2F)c2c1C1CCC2C1 (stereo partly drawn) [Example 320, N(3)-[(1R)-2-Hydroxy-1-phenylethyl]-1-(2,4-difluorophenyl)-4,5,6,7-tetrahydro-1H-4,7-methano-indazole-3-carboxamide] | 22.5 | 0 | 0.76 to 1.25 | – | – | – | – | – | – | – | 29.1 | 67.8 | – | – | –
